In one data set the target is T1, recombinant ACE2 (Homo sapiens, UniProt Q9BYF1).
T1 construct: purchased R&D 933-ZN
Put plainly: Recombinant ACE2 assay. Type of data set: biochemical. The procedure: To determine the activity of Trypstatin against ACE2, 25 µL of 0,4 µg mL^−1 recombinant ACE2 (R&D #933‐ZN) in assay buffer (75 mM Tris, 1 M NaCl, pH 7.5) was mixed with 25 µL of inhibitor for 15 min at 37 °C before addition of 50 µL of 40 µM of MCA‐YVADAPK(Dnp)‐OH substrate (R&D #ES007) and incubation for 5 min at 37 °C. Fluorescence intensity was measured after 5 min at an excitation wavelength of 320 nm and emission wavelength of 405 nm in a SynergyTM H1 microplate reader (BioTek) with Gen5 3.04 software.

Data set [1] relates to IL-1ß, IL-6, CCL5, CXCL10, IRF1 expression in HAECs. The class given is cell-based, human.
The target of the next data set is T2, recombinant furin (Homo sapiens, UniProt P09958).
T2 construct: purchased Bachem (so in the source) 1503-SE-010
T2 sequence (P09958 108-794): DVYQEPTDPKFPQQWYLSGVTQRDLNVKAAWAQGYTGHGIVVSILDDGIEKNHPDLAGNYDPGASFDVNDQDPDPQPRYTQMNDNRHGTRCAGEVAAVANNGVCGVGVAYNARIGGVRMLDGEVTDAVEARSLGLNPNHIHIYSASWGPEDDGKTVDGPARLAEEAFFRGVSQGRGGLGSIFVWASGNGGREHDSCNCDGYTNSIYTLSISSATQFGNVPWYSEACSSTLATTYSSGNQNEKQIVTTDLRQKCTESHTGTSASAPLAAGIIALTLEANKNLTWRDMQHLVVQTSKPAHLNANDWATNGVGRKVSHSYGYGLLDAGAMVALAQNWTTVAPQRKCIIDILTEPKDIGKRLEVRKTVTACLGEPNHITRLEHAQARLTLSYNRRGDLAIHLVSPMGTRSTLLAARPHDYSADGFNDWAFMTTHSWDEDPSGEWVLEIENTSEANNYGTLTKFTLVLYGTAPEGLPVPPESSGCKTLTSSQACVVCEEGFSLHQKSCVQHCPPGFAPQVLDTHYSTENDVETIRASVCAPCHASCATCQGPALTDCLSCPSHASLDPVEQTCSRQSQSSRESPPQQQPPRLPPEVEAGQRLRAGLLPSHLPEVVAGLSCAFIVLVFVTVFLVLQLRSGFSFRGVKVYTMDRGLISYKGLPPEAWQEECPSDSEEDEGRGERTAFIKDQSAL
The data set can be described thus: Furin activity assay. Type of data set: biochemical. The procedure: Furin activity assay was conducted as described previously with slight changes.^[ [42] ^] In brief, Trypstatin was mixed with recombinant furin (Bachem #1503‐SE‐010, final concentration 1.0 ng µL^−1) in assay buffer (25 mM Tris, 1 mM CaCl2, pH 9) for 30 min at room temperature before the addition of […] ‐L‐pyroglutamyl‐modified RTKR‐ AMC substrate (Bachem #4018149) per well with a final concentration of 1 mM CaCl2 in water. Fluorescence intensity was recorded in 2 min intervals for 5 h at an excitation wavelength of 355 nm and emission wavelength of 460 nm at 37 °C in a Cytation 3 (BioTek) microplate reader. The area under the curve values were normalized to the furin control. Hexa‐D‐arginine served as inhibitor control.

The next data set concerns the target T3, cathepsin L (Homo sapiens, UniProt P07711).
T3 construct: purchased R&D 952-Cy
The data set can be described thus: Cathepsin L activity assay. Type of data set: biochemical. Particulars: recombinant enzyme. The procedure: (§1) Cathepsin enzyme activity assays were performed as described before.^[ [42] ^] In brief, serially diluted compounds were mixed with recombinant cathepsin L (R&D #952‐Cy) in assay buffer (50 mM MES, 5 mM DTT, 1 mM EDTA, 0.005% Brij35, pH 6) or with cathepsin B from human placenta (Sigma Aldrich #C0150) in assay buffer (105.6 mM KH2PO4, 14.4 mM Na2HPO4, 1.2 mM EDTA, 0.07% Brij35, 2.4 mM L‐cysteine, pH 6). The protease‐inhibitor mixtures were incubated for 10 min at RT before the addition of the respective fluorogenic reporter substrate Z‐Leu‐Arg‐AMC (for cathepsin L; Bachem #4034611) or Z‐Arg‐Arg‐AMC (for cathepsin B; Bachem #4004789). The final concentrations were as follows: Cathepsin L 0.01 µg mL^−1, cathepsin B 1 µg mL^−1, Z‐Leu‐Arg‐AMC 40 µM or Z‐Arg‐Arg‐AMC 30 µM. Fluorescence intensity was recorded at an excitation wavelength of 380 nm and emission wavelength of 460 nm after 25 min at 37 °C (cathepsin L) or after 60 min at 40 °C (cathepsin B) in a Synergy H1 microplate reader (BioTek) with Gen 5 3.04 software.

In data set [2] the target is T4, TMPRSS2 Syrian gold hamster (Mesocricetus auratus, UniProt A0A1U8C7C8).
T4 construct: encoding the respective transmembrane serine protease per well; host or cells: HEK293T
T4 sequence (A0A1U8C7C8 1-492): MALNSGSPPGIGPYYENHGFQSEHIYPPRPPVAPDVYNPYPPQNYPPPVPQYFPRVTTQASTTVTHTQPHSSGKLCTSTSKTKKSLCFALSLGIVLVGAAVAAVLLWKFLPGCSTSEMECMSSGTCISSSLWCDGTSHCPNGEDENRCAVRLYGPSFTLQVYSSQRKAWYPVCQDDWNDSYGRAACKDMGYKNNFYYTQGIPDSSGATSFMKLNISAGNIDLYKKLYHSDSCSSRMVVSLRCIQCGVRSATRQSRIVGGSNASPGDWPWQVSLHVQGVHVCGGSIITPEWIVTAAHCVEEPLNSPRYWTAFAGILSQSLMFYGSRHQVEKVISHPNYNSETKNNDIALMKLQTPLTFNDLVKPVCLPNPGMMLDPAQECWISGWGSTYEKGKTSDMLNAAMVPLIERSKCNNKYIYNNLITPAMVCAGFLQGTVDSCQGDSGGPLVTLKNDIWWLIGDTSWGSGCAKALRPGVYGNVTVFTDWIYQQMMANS
Put plainly: Cellular hamster TMPRSS2 activity assay in transfected HEK293T cells. The class given is cell-based. Particulars: compared with human TMPRSS2. The procedure: Twenty thousand HEK293T cells were seeded in a 96‐well flat bottom plate. The next day, cells were transfected with 100 ng of an expression plasmid (Backbone: Twist Bioscience, EF1alpha mammalian expression vector) encoding the respective transmembrane serine protease per well using LT1 transfection reagent (TMPRSS2 human NCBI RefSeq: NP_005647.3; TMPRSS2 Syrian gold hamster NCBI RefSeq: XP_012971683.1; TMPRSS11D NCBI RefSeq: NP_004253.1; TMPRSS13 NCBI RefSeq: NP_001070731.1). In short, plasmid DNA was mixed in a 1:3 ratio with LT1 in a serum‐free medium and incubated for 20 min before the mixture was applied dropwise onto the cells. Sixteen hours post‐transfection, the medium was replaced by a serum‐free medium, and cells were treated with serial dilution of compounds in PBS. After 15 min of incubation at 37 °C, 100 µM of respective protease‐specific substrate (TMPRSS2: Boc‐QAR‐AMC, Bachem # 4017019; TMPRSS11D: Boc‐FSR‐AMC, Bachem # 4012340; TMPRSS13: Pyr‐RTKR‐AMC, Bachem #4018149) was added and incubated for 2 h at 37 °C. Fluorescence intensity was recorded at an excitation wavelength of 380 nm and emission wavelength of 460 nm in a Synergy H1 microplate reader (BioTek) with Gen 5 3.04 software. Values were background corrected for non‐transfected HEK293T‐cells. […]

For the next data set, the system named is Caco-2 cells. The data set can be described thus: Cytotoxicity assay (CellTiter-Glo). Type of data set: cell-based, human. To be noted: 48 h, ATP levels, tested concentrations. The procedure: To assess the cytotoxicity of the inhibitors used, 10 000 Caco2 cells were seeded in a 96‐well flat bottom plate. The next day, the medium was replaced and cells were treated with serial dilutions of compounds or PBS as a control. After 48 h, cell viability was assessed by measuring ATP levels in cell lysates with a commercially available kit (CellTiter‐Glo, Promega) in an Orion II microplate reader with Simplicity 4.2 software.
(ATP-based viability assays read luminescence as a measure of living cells.)

Data set [3] relates to lentiviral pseudoparticles harboring VSV-G glycoprotein. The class given is cell-based.
Data set [4] concerns the target T5, cathepsin B from human placenta (Homo sapiens, UniProt P07858).
T5 construct: cathepsin B from human placenta (Sigma Aldrich #C0150); purchased Sigma Aldrich C0150; host or cells: human placenta (tissue-derived)
Put plainly: Cathepsin B activity assay. Type of data set: biochemical. Particulars: enzyme from human placenta. The procedure:
as §1

A further data set concerns the target T6, TMPRSS14 (Matriptase) (Homo sapiens, UniProt Q9Y5Y6).
T6 construct: purchased 3946
Put plainly: Recombinant TMPRSS14 activity assay. To be noted: recombinant enzyme. Type of data set: biochemical. The procedure: In the next step, 50 µL of 20 µM BOC‐Gln‐Ala‐Arg‐AMC protease substrate (Bachem #4017019) in the case of TMPRSS2 and TMPRSS14 or 50 µL of 150 µM BOC‐Gln‐Arg‐Arg‐AMC (PeptaNova) in the case of TMPRSS1 was added and incubated for 2 h for TMPRSS2, or 5 mins in the case of TMPRSS1/14 at 37 °C. Fluorescence intensity was measured after 2 h at an excitation wavelength of 380 nm and emission wavelength of 460 nm in a SynergyTM H1 microplate reader (BioTek) with Gen5 3.04 software. […] Assays were performed in a total volume of 100 µL in quadruplicate wells of a 96 Nunc well plate (Thermo Scientific #10174221) with a final TMPRSS2 concentration of 20 nM. Initial velocities were measured in 50 s intervals for 15 min with excitation of 360 nm and emission of 460 nm in a SynergyTM H1 microplate reader. K m and V max were calculated from Michaelis–Menten plots using GraphPadPrism. The inhibitory constant K i was calculated from the IC50 values according to the Cheng–Prusoff equation (K i = IC50/(1 + [S]/K m)) for competitive reversible inhibitors.^[ [91] ^]

A further data set concerns SARS-CoV-2 Delta. To be noted: hamster, in vivo.
Another data set concerns SARS-CoV-2 BA.5. The class given is cell-based.

Entries after “also recorded” stand apart in the source; their conditions may differ. Bridge positions count the residues as written; N and C are the ends.

Results on one sequence are retold here after publication PMC12224939, “Trypstatin as a Novel TMPRSS2 Inhibitor with Broad‐Spectrum Efficacy against Corona and Influenza Viruses” (Advanced Science, 2025).

T1 sequence (Q9BYF1 18-805): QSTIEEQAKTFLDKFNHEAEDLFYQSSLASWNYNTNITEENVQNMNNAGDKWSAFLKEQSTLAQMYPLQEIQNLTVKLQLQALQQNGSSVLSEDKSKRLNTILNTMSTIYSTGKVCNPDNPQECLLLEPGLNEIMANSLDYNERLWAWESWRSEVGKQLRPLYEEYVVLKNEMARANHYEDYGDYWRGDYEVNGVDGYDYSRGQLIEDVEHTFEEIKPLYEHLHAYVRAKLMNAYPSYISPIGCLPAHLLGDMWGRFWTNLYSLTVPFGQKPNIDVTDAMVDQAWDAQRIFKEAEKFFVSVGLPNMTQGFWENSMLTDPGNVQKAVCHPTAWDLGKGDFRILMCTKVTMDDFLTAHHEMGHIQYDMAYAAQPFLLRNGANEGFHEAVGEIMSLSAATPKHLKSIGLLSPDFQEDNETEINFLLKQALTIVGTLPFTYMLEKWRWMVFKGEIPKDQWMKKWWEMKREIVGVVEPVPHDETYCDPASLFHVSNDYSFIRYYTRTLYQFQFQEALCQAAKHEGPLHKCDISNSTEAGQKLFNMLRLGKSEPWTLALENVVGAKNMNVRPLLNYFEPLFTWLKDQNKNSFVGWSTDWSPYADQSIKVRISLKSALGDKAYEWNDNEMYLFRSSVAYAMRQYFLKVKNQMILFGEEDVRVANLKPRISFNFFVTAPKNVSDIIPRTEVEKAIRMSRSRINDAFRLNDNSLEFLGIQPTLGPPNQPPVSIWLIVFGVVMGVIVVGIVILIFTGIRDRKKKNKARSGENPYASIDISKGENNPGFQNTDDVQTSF
T3 sequence (P07711 114-333): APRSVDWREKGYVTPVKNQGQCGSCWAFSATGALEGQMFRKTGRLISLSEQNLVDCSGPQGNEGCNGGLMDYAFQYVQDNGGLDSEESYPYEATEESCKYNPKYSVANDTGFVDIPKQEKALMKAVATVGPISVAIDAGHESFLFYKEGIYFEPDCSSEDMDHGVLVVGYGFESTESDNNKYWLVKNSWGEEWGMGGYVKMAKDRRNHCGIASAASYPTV
T6 sequence (Q9Y5Y6 whole entry): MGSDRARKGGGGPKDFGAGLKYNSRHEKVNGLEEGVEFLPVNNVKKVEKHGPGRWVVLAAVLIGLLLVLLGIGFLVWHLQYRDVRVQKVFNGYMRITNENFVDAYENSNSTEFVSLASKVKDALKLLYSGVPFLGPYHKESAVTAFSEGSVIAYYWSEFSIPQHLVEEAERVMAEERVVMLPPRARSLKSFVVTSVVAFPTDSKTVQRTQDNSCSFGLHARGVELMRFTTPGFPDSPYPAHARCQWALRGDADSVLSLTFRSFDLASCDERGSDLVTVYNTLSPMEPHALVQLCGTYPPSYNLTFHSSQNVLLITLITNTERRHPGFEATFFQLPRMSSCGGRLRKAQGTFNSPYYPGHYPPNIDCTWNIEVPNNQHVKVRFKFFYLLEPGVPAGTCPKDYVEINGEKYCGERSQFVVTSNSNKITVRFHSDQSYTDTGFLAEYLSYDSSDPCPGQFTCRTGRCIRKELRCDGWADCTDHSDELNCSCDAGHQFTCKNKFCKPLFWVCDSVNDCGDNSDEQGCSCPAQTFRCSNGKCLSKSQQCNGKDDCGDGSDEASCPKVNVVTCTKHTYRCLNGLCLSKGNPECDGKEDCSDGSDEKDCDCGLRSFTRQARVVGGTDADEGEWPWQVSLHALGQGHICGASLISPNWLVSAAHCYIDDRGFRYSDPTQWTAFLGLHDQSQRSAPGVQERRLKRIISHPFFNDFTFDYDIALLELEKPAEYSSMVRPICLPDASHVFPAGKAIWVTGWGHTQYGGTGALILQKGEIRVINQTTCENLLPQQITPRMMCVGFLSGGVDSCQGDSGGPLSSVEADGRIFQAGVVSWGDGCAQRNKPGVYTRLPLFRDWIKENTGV

Consider “VAACNLPIVRGPCRAFIQLWAFDAVKGKCVLFPYGGCQGNGNKFYSEKECREYCGVPGDGD (disulfide 4-54, 13-37, 29-50 (inferred)) [Trypstatin]”, for which the “inhibition of ACE2” value on recombinant ACE2 was “did not inhibit; also recorded: does not inhibit”. In data set [1], the “effect on expression of inflammatory genes” value is given as “failed to reach significance; also recorded: does not have a significant anti-inflammatory effect”. For the same sequence, the “inhibition of Furin” value on recombinant furin was “did not inhibit; also recorded: does not inhibit”. Further, the “inhibition of Cathepsin L” value at cathepsin L was “did not inhibit”. In data set [2], the “inhibition of hamster TMPRSS2” value is “IC50 values similar to those for human TMPRSS2; also recorded: blocks hamster and human TMPRSS2 activity with similar efficacies”. The “cytotoxicity / cell viability” value in the data set on Caco-2 cells is given as “does not influence cell viability”. Further, in data set [3], the “effect on VSV-G-mediated pseudoparticle entry” value is given as “without affecting VSV‐G‐driven entry”. In data set [4], the “inhibition of Cathepsin B” value is recorded as “did not inhibit”. For the same sequence, on TMPRSS14 (Matriptase), the “inhibition of TMPRSS14” value was “no effect”. In the data set on SARS-CoV-2 Delta, the “clinical symptoms (piloerection, weakness, fatigue, abnormal posture)” value is “almost entirely absent”; the “infectious virus particles in BAL (TCID50)” value is listed as “significantly reduced”; the “side effects in hamsters” value is given as “without observed side effects”; the “viral loads in BAL (qPCR)” value is “significantly reduced”. Moreover, in the data set with SARS-CoV-2 BA.5, the “reduction of SARS-CoV-2 BA.5 replication over 72 h” value is given as “up to four orders of magnitude”.
